In brackets after ≈: the same amount, converted by molar mass. Read-outs that look alike come from different tables or passages of the source.
Columns and labels:
A. ochraceus = assay: Antifungal bioassay (MIC/MFC); format: cell-based; settings: Aspergillus ochraceus, A.o. (A. ochraceus); for MIC: read-out: MIC
Protocol: (§1) For the antifungal bioassays, six fungi were used: […] The organisms were obtained from the Mycological Laboratory, Department of Plant Physiology, Institute for Biological Research “Siniša Stankovic”, Belgrade, Serbia. All experiments were performed in duplicate.

[1] = test system: Aspergillus fumigatus (ATCC 1022); assay: Antifungal bioassay (MIC/MFC); format: cell-based; settings: ATCC1022, A.f. (A. fumigatus)
Protocol: as §1

[2] = test system: Aspergillus niger (ATCC 6275); assay: Antifungal bioassay (MIC/MFC); format: cell-based; settings: ATCC6275, A.n. (A. niger)
Protocol: as §1

[3] = test system: Aspergillus versicolor (ATCC 11730); assay: Antifungal bioassay (MIC/MFC); format: cell-based; settings: ATCC11730, A.v. (A. versicolor)
Protocol: as §1

P. ochrochloron = assay: Antifungal bioassay (MIC/MFC); format: cell-based; settings: for MFC: P.o. (P. ochrochloron); for MIC: P.o. (P. ochrochloron; text: P. ochramensis)
Protocol: as §1

[4] = test system: Penicillium funiculosum (ATCC 36839); assay: Antifungal bioassay (MIC/MFC); format: cell-based; settings: Talaromyces funiculosus, ATCC36839; P.f. (P. funiculosum)
Protocol: as §1

[5] = test system: Trichoderma viride (IAM 5061); assay: Antifungal bioassay (MIC/MFC); format: cell-based; settings: T.v. (T. viride)
Protocol: as §1

[6] = test system: Penicillium verrucosum var. cyclopium (food isolate); assay: Antifungal bioassay (MIC/MFC); format: cell-based
Protocol: For the antifungal bioassays, six fungi were used: Aspergillus niger (ATCC 6275), Aspergillus fumigatus (ATCC 1022), Aspergillus versicolor (ATCC 11730), Penicillium funiculosum (ATCC 36839), Trichoderma viride (IAM 5061), and Penicillium verrucosum var. cyclopium (food isolate). The organisms were obtained from the Mycological Laboratory, Department of Plant Physiology, Institute for Biological Research “Siniša Stankovic”, Belgrade, Serbia. All experiments were performed in duplicate.

[7] = test system: Bacillus cereus (clinical isolate); assay: Antibacterial microdilution (MIC/MBC); format: cell-based; settings: Bacillus cereus, B.c. (B. cereus); for MIC: read-out: MIC
Protocol: (§2) The synthesized compounds (Table 1) were evaluated for their antibacterial activity against a panel of eight species using a microdilution method with ampicillin and streptomycin as reference drugs. […] The order of activity can be presented as: 8 > 11 > 2 > 1 > 12 > 3 > 17 > 7 > 5 > 13 > 14 > 16 > 9 > 4 = 6 > 15 > 10. […] Cloacae. […] The most sensitive bacteria appeared to be En. cloacae, while E. coli was the most resistant one, followed by M. flavus.
(§3) The following Gram-negative bacteria: Escherichia coli (ATCC 35210), Enterobacter cloacae (clinical isolate), Salmonella typhimurium (ATCC 13311), as well as Gram-positive bacteria: Listeria monocytogenes (NCTC 7973), Bacillus cereus (clinical isolate), and Staphylococcus aureus (ATCC 6538) were used. The organisms were obtained from the Mycological Laboratory, Department of Plant Physiology, Institute for Biological Research “Siniša Stankovic”, Belgrade, Serbia. The minimum inhibitory (MIC) and minimum bactericidal (MBC) concentrations were determined by the modified microdilution method, as previously reported.

[8] = test system: Enterobacter cloacae (clinical isolate); assay: Antibacterial microdilution (MIC/MBC); format: cell-based; settings: En.cl (En. cloacae)
Protocol: as §2, §3

[9] = test system: Escherichia coli (ATCC 35210); assay: Antibacterial microdilution (MIC/MBC); format: cell-based; settings: Escherichia coli, ATCC35210, E. coli; for MIC: read-out: MIC
Protocol: as §2, §3

[10] = test system: Listeria monocytogenes (NCTC 7973); assay: Antibacterial microdilution (MIC/MBC); format: cell-based; settings: L.m. (L. monocytogenes)
Protocol: as §2, §3

M. flavus = assay: Antibacterial microdilution (MIC/MBC); format: cell-based; settings: Micrococcus flavus; M.f. (M. flavus)
Protocol: as §2, §3

P. aeruginosa = assay: Antibacterial microdilution (MIC/MBC); format: cell-based; settings: Pseudomonas aeruginosa, P.a. (P. aeruginosa); for MIC: read-out: MIC
Protocol: as §2, §3

[11] = test system: Salmonella typhimurium (ATCC 13311); assay: Antibacterial microdilution (MIC/MBC); format: cell-based; settings: Salmonella enterica, S.t. (S. typhimurium); for MIC: read-out: MIC
Protocol: as §2, §3

[12] = test system: Staphylococcus aureus (ATCC 6538); assay: Antibacterial microdilution (MIC/MBC); format: cell-based; settings: S.a. (S. aureus)
Protocol: as §2, §3

[13] = Penicillium ochrochloron, read-out: MIC
[14] = Trichoderma viride, IAM5061, read-out: MIC
[15] = Enterobacter cloacae, read-out: MIC
[16] = Listeria monocytogenes, NCTC7973
[17] = Listeria monocytogenes, NCTC7973, read-out: MIC
[18] = Staphylococcus aureus, ATCC6538
[19] = Staphylococcus aureus, ATCC6538, read-out: MIC

With `c1ccc(-c2ccc(C(c3ccccc3)n3ccnc3)cc2)cc1` (stereo not shown) [Bifonazole, reference compound] the MFC (A. ochraceus) was 200 ± 10 µg/mL (≈ 644 µM), the MIC (A. ochraceus) was 150 ± 50 µg/mL (≈ 483 µM) and the MFC [1] was 200 ± 10 µg/mL (≈ 644 µM). For the same compound, the MIC [1] was 150 ± 50 µg/mL (≈ 483 µM), the MFC [2] was 200 ± 10 µg/mL (≈ 644 µM) and the MIC [2] was 150 ± 50 µg/mL (≈ 483 µM). For the same compound, the MFC [3] was 200 ± 10 µg/mL (≈ 644 µM), the MIC [3] was 100 ± 2 µg/mL (≈ 322 µM) and the MFC (P. ochrochloron; Penicillium ochrochloron) was 250 ± 50 µg/mL (≈ 805 µM). The MIC (P. ochrochloron; [13]) was 200 ± 10 µg/mL (≈ 644 µM), the MFC [4] was 250 ± 50 µg/mL (≈ 805 µM) and the MIC [4] was 200 ± 10 µg/mL (≈ 644 µM). For the same compound, the MFC ([5]; Trichoderma viride, IAM5061) was 200 ± 10 µg/mL (≈ 644 µM), the MIC [5, 14] was 150 ± 50 µg/mL (≈ 483 µM) and the MFC ([6]; P.v.c. (P. cyclpoium var verucosum), read-out: MFC) was 200 ± 10 µg/mL (≈ 644 µM). It also gave an MIC ([6]; P.v.c. (P. cyclpoium var verucosum), read-out: MIC) of 100 ± 9 µg/mL (≈ 322 µM).

Compound `COC(=O)c1[nH]c2ccc(F)cc2c1/C=C1\SC(=S)N(C(C(=O)O)C(C)C)C1=O` (stereo not shown) [Compound 8, (Z)-2-(5-((5-fluoro-2-(methoxycarbonyl)-1H-indol-3-yl)methylene)-4-oxo-2-thioxothiazolidin-3-yl)-3-methylbutanoic acid] has an MBC [7] of 60 ± 6 µg/mL (≈ 137 µM), an MIC [7] of 30 ± 10 µg/mL (≈ 68.7 µM) and an MIC [8] of 4 ± 5 µg/mL (≈ 9.16 µM). The MBC ([8]; Enterobacter cloacae) was 8 ± 0.6 µg/mL (≈ 18.3 µM), the MIC [8, 15] was 4 µg/mL (≈ 9.16 µM) and the MBC [9] was 15 ± 9 µg/mL (≈ 34.4 µM). The MIC [9] was 8 ± 1 µg/mL (≈ 18.3 µM), the MIC [10] was 15 ± 1 µg/mL (≈ 34.4 µM) and the MBC [10, 16] was 30 ± 10 µg/mL (≈ 68.7 µM). It also gave an MIC [10, 17] of 15 µg/mL (≈ 34.4 µM), an MBC (M. flavus) of 60 ± 6 µg/mL (≈ 137 µM) and an MIC (M. flavus) of 30 ± 10 µg/mL (≈ 68.7 µM). It also gave an MBC (P. aeruginosa) of 8 ± 0.6 µg/mL (≈ 18.3 µM), an MIC (P. aeruginosa) of 4 ± 5 µg/mL (≈ 9.16 µM) and an MBC [11] of 15 ± 9 µg/mL (≈ 34.4 µM). It also gave an MIC [11] of 8 ± 9 µg/mL (≈ 18.3 µM), an MBC [12, 18] of 60 ± 6 µg/mL (≈ 137 µM) and an MIC [12, 19] of 30 ± 10 µg/mL (≈ 68.7 µM). For the same compound, the MFC (A. ochraceus) was 15 ± 3 µg/mL (≈ 34.4 µM), the MIC (A. ochraceus) was 8 ± 0.6 µg/mL (≈ 18.3 µM) and the MFC [1] was 120 ± 40 µg/mL (≈ 275 µM). The MIC [1] was 60 ± 6 µg/mL (≈ 137 µM), the MFC [2] was 30 ± 10 µg/mL (≈ 68.7 µM) and the MIC [2] was 15 ± 3 µg/mL (≈ 34.4 µM). It also gave an MFC [3] of 30 ± 10 µg/mL (≈ 68.7 µM), an MIC [3] of 15 ± 3 µg/mL (≈ 34.4 µM) and an MFC (P. ochrochloron; Penicillium ochrochloron) of 30 ± 10 µg/mL (≈ 68.7 µM). For the same compound, the MIC (P. ochrochloron; [13]) was 15 ± 3 µg/mL (≈ 34.4 µM), the MFC [4] was 30 ± 10 µg/mL (≈ 68.7 µM) and the MIC [4] was 15 ± 3 µg/mL (≈ 34.4 µM). The MFC [6] was 120 ± 40 µg/mL (≈ 275 µM) and the MIC [6] was 60 ± 6 µg/mL (≈ 137 µM).

In the case of `COC(=O)c1[nH]c2ccccc2c1/C=C1\SC(=S)N(N2CCOCC2)C1=O` [Compound 6, (Z)-methyl 3-((3-morpholino-4-oxo-2-thioxothiazolidin-5-ylidene)methyl)-1H-indole-2-carboxylate], the MBC [7] is reported as 60 ± 6 µg/mL (≈ 149 µM), the MIC [7] is reported as 30 ± 10 µg/mL (≈ 74.4 µM) and the MBC ([8]; Enterobacter cloacae) is reported as 30 ± 10 µg/mL (≈ 74.4 µM). The MIC [8, 15] was 15 ± 9 µg/mL (≈ 37.2 µM), the MBC [9] was 120 ± 10 µg/mL (≈ 297 µM) and the MIC [9] was 60 ± 6 µg/mL (≈ 149 µM). The MBC [10, 16] was 60 ± 6 µg/mL (≈ 149 µM), the MIC [10, 17] was 30 ± 10 µg/mL (≈ 74.4 µM) and the MBC (M. flavus) was 60 ± 6 µg/mL (≈ 149 µM). The MIC (M. flavus) was 45 ± 3 µg/mL (≈ 112 µM), the MBC (P. aeruginosa) was 60 ± 6 µg/mL (≈ 149 µM) and the MIC (P. aeruginosa) was 30 ± 10 µg/mL (≈ 74.4 µM). The MBC [11] was 60 ± 6 µg/mL (≈ 149 µM), the MIC [11] was 30 ± 10 µg/mL (≈ 74.4 µM) and the MIC [12] was 15 ± 9 µg/mL (≈ 37.2 µM). For the same compound, the MBC [12, 18] was 30 ± 10 µg/mL (≈ 74.4 µM), the MIC [12, 19] was 15 µg/mL (≈ 37.2 µM) and the MFC (A. ochraceus) was 15 ± 3 µg/mL (≈ 37.2 µM). For the same compound, the MIC (A. ochraceus) was 8 ± 0.6 µg/mL (≈ 19.8 µM), the MFC [1] was 120 ± 40 µg/mL (≈ 297 µM) and the MIC [1] was 60 ± 6 µg/mL (≈ 149 µM). For the same compound, the MFC [3] was 15 ± 3 µg/mL (≈ 37.2 µM), the MIC [3] was 8 ± 0.6 µg/mL (≈ 19.8 µM) and the MIC (P. ochrochloron) was 8 ± 0.6 µg/mL (≈ 19.8 µM). It also gave an MFC (P. ochrochloron; Penicillium ochrochloron) of 15 ± 3 µg/mL (≈ 37.2 µM), an MIC (P. ochrochloron; [13]) of 8 µg/mL (≈ 19.8 µM) and an MFC [4] of 30 ± 10 µg/mL (≈ 74.4 µM). For the same compound, the MIC [4] was 15 ± 3 µg/mL (≈ 37.2 µM), the MIC [5] was 8 ± 0.6 µg/mL (≈ 19.8 µM) and the MFC ([5]; Trichoderma viride, IAM5061) was 15 ± 3 µg/mL (≈ 37.2 µM). For the same compound, the MIC [5, 14] was 8 µg/mL (≈ 19.8 µM), the MFC [6] was 30 ± 10 µg/mL (≈ 74.4 µM) and the MIC [6] was 15 ± 3 µg/mL (≈ 37.2 µM). For the same compound, the melting point was 278 to 280 °C.

— paper PMC9865890, “N-Derivatives of (Z)-Methyl 3-(4-Oxo-2-thioxothiazolidin-5-ylidene)methyl)-1H-indole-2-carboxylates as Antimicrobial Agents—In Silico and In Vitro Evaluation” (Pharmaceuticals, 2023)
